Data taken from patent publication US20040006047A1, “Heterocyclic amides, a process for their preparation, compositions comprising them and their use” (priority 2001, published 2004).

O=C(NC1CCOCC1)c1cnccc1C(F)(F)F [Example A, N-(Tetrahydropyran-4-yl)-4-trifluoromethylnicotinamide]
melting point: 149 to 150 °C

O=C(NC1CC[S+]([O-])CC1)c1cnccc1C(F)(F)F (stereo not shown) [Example C, N-(Tetrahydrothiopyran-4-yl)-4-trifluoromethylnicotinamide S-oxide]
melting point: 243 to 244 °C

O=C(NC1CCS(=O)(=O)CC1)c1cnccc1C(F)(F)F [Example D, N-(Tetrahydrothiopyran-4-yl)-4-trifluoromethylnicotinamide S,S-dioxide]
melting point: 248 °C (dec.)

CC1(C)OCC(NC(=O)c2cnccc2C(F)(F)F)CO1 [Example E, N-(2,2-Dimethyl-1,3-dioxa-cyclohexyl)-4-trifluoromethylnicotinamide]
melting point: 155 to 156 °C
